“And” between values parts separate entries of the source, which are not always exact repeats. Equal entries are not always repeated. Inconclusive results and toxic doses are left out.
System: L1210 leukemia ip in BDF1 mice, survival T/C
Assay: NCI In Vivo Anticancer Drug Screen. Data for tumor model L1210 Leukemia (intraperitoneal) in B6D2F1 (BDF1) mice
Details: endpoint: mean survival time, higher = longer survival
Procedure, shortened: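 Tumor cells were implanted, animals were treated, and survival was followed. The result divides the treated measurement by the vehicle-control measurement.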

[1] = dose: 75.0 mg/kg/injection, schedule: Q01DX001 (ip), vehicle: carboxymethylcellulose (CMC)
[2] = dose: 100.0 mg/kg/injection, schedule: Q01DX009 (ip), vehicle: saline
[3] = dose: 100.0 mg/kg/injection, schedule: Q04DX003 (ip), vehicle: saline
[4] = dose: 200.0 mg/kg/injection, schedule: Q01DX009 (ip), vehicle: saline
[5] = dose: 200.0 mg/kg/injection, schedule: Q04DX003 (ip), vehicle: saline
[6] = dose: 400.0 mg/kg/injection, schedule: Q01DX009 (ip), vehicle: saline
[7] = dose: 400.0 mg/kg/injection, schedule: Q04DX003 (ip), vehicle: saline
[8] = dose: 100.0 mg/kg/injection, schedule: Q01DX001 (ip), vehicle: saline
[9] = dose: 200.0 mg/kg/injection, schedule: Q01DX001 (ip), vehicle: saline
[10] = dose: 400.0 mg/kg/injection, schedule: Q01DX001 (ip), vehicle: saline
[11] = dose: 100.0 mg/kg/injection, schedule: Q04DX003 (ip), vehicle: Klucel (hydroxypropylcellulose) (HPC)
[12] = dose: 100.0 mg/kg/injection, schedule: Q01DX009 (ip), vehicle: Klucel (hydroxypropylcellulose) (HPC)
[13] = dose: 200.0 mg/kg/injection, schedule: Q01DX009 (ip), vehicle: Klucel (hydroxypropylcellulose) (HPC)
[14] = dose: 400.0 mg/kg/injection, schedule: Q01DX009 (ip), vehicle: Klucel (hydroxypropylcellulose) (HPC)

For `CC1CN=C(c2ccc(NC(=O)c3ccc(C(=O)Nc4ccc(C5=NCC(C)N5)cc4)cc3)cc2)N1` (stereo not given), the T/C (dose: 0.5 mg/kg/injection, schedule: Q01DX Z (ip), vehicle: carboxymethylcellulose (CMC)) was 100 % of control, the T/C (dose: 1.0 mg/kg/injection, schedule: Q01DX Z (ip), vehicle: carboxymethylcellulose (CMC)) was 117 % of control and the T/C (dose: 1.0 mg/kg/injection, schedule: Q01DX Z (ip), vehicle: saline) was 119 % of control. For the same molecule, the T/C (dose: 1.9 mg/kg/injection, schedule: Q01DX Z (ip), vehicle: carboxymethylcellulose (CMC)) was 198 % of control, the T/C (dose: 2.9 mg/kg/injection, schedule: Q01DX Z (ip), vehicle: carboxymethylcellulose (CMC)) was 173 % of control and 193 % of control and the T/C (dose: 3.8 mg/kg/injection, schedule: Q01DX Z (ip), vehicle: carboxymethylcellulose (CMC)) was 228 % of control. The T/C (dose: 4.3 mg/kg/injection, schedule: Q01DX Z (ip), vehicle: carboxymethylcellulose (CMC)) was 157 % of control, the T/C (dose: 6.5 mg/kg/injection, schedule: Q01DX Z (ip), vehicle: carboxymethylcellulose (CMC)) was 207 % of control and the T/C (dose: 7.5 mg/kg/injection, schedule: Q01DX Z (ip), vehicle: carboxymethylcellulose (CMC)) was 337 % of control. For the same molecule, the T/C (dose: 9.7 mg/kg/injection, schedule: Q01DX Z (ip), vehicle: carboxymethylcellulose (CMC)) was 205 % of control, the T/C (dose: 15.0 mg/kg/injection, schedule: Q01DX Z (ip), vehicle: carboxymethylcellulose (CMC)) was 243 % of control and the T/C (dose: 30.0 mg/kg/injection, schedule: Q01DX Z (ip), vehicle: carboxymethylcellulose (CMC)) was 175 % of control. The T/C (dose: 30.0 mg/kg/injection, schedule: Q01DX Z (oral), vehicle: carboxymethylcellulose (CMC)) was 97 % of control, the T/C (dose: 32.8 mg/kg/injection, schedule: Q01DX Z (ip), vehicle: carboxymethylcellulose (CMC)) was 151 % of control and the T/C (dose: 60.0 mg/kg/injection, schedule: Q01DX Z (ip), vehicle: saline) was 119 % of control. For the same molecule, the T/C (dose: 60.0 mg/kg/injection, schedule: Q01DX Z (oral), vehicle: carboxymethylcellulose (CMC)) was 94 % of control, the T/C (dose: 62.5 mg/kg/injection, schedule: Q## X010 (oral), vehicle: saline) was 102 % of control and the T/C (dose: 74.0 mg/kg/injection, schedule: Q01DX Z (ip), vehicle: carboxymethylcellulose (CMC)) was 114 % of control. For the same molecule, the T/C (dose: 111.0 mg/kg/injection, schedule: Q01DX Z (ip), vehicle: carboxymethylcellulose (CMC)) was 101 % of control, the T/C (dose: 120.0 mg/kg/injection, schedule: Q01DX Z (ip), vehicle: saline) was 114 % of control and the T/C (dose: 120.0 mg/kg/injection, schedule: Q01DX Z (oral), vehicle: carboxymethylcellulose (CMC)) was 97 % of control. For the same molecule, the T/C (dose: 125.0 mg/kg/injection, schedule: Q## X010 (oral), vehicle: saline) was 102 % of control, the T/C (dose: 240.0 mg/kg/injection, schedule: Q01DX Z (oral), vehicle: carboxymethylcellulose (CMC)) was 94 % of control and the T/C (dose: 250.0 mg/kg/injection, schedule: Q## X010 (oral), vehicle: saline) was 102 % of control. For the same molecule, the T/C (dose: 375.0 mg/kg/injection, schedule: Q01DX Z (ip), vehicle: carboxymethylcellulose (CMC)) was 117 % of control and the T/C (dose: 500.0 mg/kg/injection, schedule: Q## X010 (oral), vehicle: saline) was 103 % of control.

For `O=C(O)c1cccc(F)c1CBr`, the T/C [1] was 104 % of control.

`Nc1ccc(C(=O)Nc2ccc(Nc3ccncc3)cc2)c([N+](=O)[O-])c1` was tested, and the T/C [2] was 97 % of control, the T/C [3] was 100 % of control and the T/C [4] was 104 % of control. For the same molecule, the T/C [5] was 96 % of control, the T/C [6] was 106 % of control and the T/C [7] was 100 % of control.

`CCCCNC(=O)n1ncc2cc([N+](=O)[O-])c([N+](=O)[O-])cc21` was tested, and the T/C [8] was 103 % of control, the T/C [9] was 97 % of control and the T/C [10] was 101 % of control.

For `Cn1c(=N)sc2ccc3ccccc3c21`, the T/C (dose: 12.5 mg/kg/injection, schedule: Q04DX003 (ip), vehicle: Klucel (hydroxypropylcellulose) (HPC)) was 90 % of control, the T/C (dose: 25.0 mg/kg/injection, schedule: Q04DX003 (ip), vehicle: Klucel (hydroxypropylcellulose) (HPC)) was 91 % of control and the T/C (dose: 50.0 mg/kg/injection, schedule: Q04DX003 (ip), vehicle: Klucel (hydroxypropylcellulose) (HPC)) was 98 % of control. For the same molecule, the T/C [11] was 86 % of control.

`C(CC1CCCCC1)=C(CCC1CCCCC1)CCC1CCCCC1` was tested, and the T/C (dose: 100.0 mg/kg/injection, schedule: Q04DX003 (ip), vehicle: saline with Tween-80) was 103 % of control, the T/C (dose: 200.0 mg/kg/injection, schedule: Q04DX003 (ip), vehicle: saline with Tween-80) was 105 % of control and the T/C (dose: 400.0 mg/kg/injection, schedule: Q04DX003 (ip), vehicle: saline with Tween-80) was 100 % of control.

In the case of `CCCCOC1OCN(C(C)(C)C)CC1(C)C` (stereo not given), the T/C (dose: 100.0 mg/kg/injection, schedule: Q04DX002 (ip), vehicle: saline) is reported as 104 % of control, the T/C (dose: 200.0 mg/kg/injection, schedule: Q04DX002 (ip), vehicle: saline) is reported as 112 % of control and the T/C (dose: 400.0 mg/kg/injection, schedule: Q04DX002 (ip), vehicle: saline) is reported as 101 % of control.

`CCCCOC(c1ccccc1)N1CCCCC1` (stereo not given) was tested, and the T/C (dose: 200.0 mg/kg/injection, schedule: Q01DX001 (ip), vehicle: carboxymethylcellulose (CMC)) was 95 % of control.

In the case of `CON(C)S(=O)(=O)c1ccc([N+](=O)[O-])cc1`, the T/C (dose: 100.0 mg/kg/injection, schedule: Q01DX001 (ip), vehicle: Klucel (hydroxypropylcellulose) (HPC)) is reported as 102 % of control and the T/C (dose: 200.0 mg/kg/injection, schedule: Q01DX001 (ip), vehicle: Klucel (hydroxypropylcellulose) (HPC)) is reported as 98 % of control.

`CC(=O)Nc1ccc(S(=O)(=O)Cl)cc1` was tested, and the T/C (dose: 75.0 mg/kg/injection, schedule: Q01DX001 (ip), vehicle: other) was 94 % of control, the T/C [3] was 108 % of control and the T/C (dose: 150.0 mg/kg/injection, schedule: Q01DX001 (ip), vehicle: other) was 88 % of control. For the same molecule, the T/C [5] was 92 % of control and the T/C [7] was 90 % of control.

With `ClC(c1ccccc1)C1(Cl)C=c2ccccc2=C1` (stereo not given) the T/C [12] was 98 % of control, the T/C [11] was 102 % of control and the T/C [13] was 98 % of control. The T/C (dose: 200.0 mg/kg/injection, schedule: Q04DX003 (ip), vehicle: Klucel (hydroxypropylcellulose) (HPC)) was 92 % of control, the T/C [14] was 95 % of control and the T/C (dose: 400.0 mg/kg/injection, schedule: Q04DX003 (ip), vehicle: Klucel (hydroxypropylcellulose) (HPC)) was 96 % of control.

With `ClCCOCCOc1ccccc1OCCOCCCl` the T/C (dose: 50.0 mg/kg/injection, schedule: Q04DX002 (ip), vehicle: saline with Tween-80) was 100 % of control and the T/C (dose: 100.0 mg/kg/injection, schedule: Q04DX002 (ip), vehicle: saline with Tween-80) was 90 % of control.

For `O=C1C=CC(=O)c2nc(-c3ccccn3)c(-c3ccccn3)nc21`, the T/C (dose: 1.56 mg/kg/injection, schedule: Q04DX003 (ip), vehicle: Klucel (hydroxypropylcellulose) (HPC)) was 92 % of control, the T/C (dose: 3.12 mg/kg/injection, schedule: Q04DX003 (ip), vehicle: Klucel (hydroxypropylcellulose) (HPC)) was 93 % of control and the T/C (dose: 6.25 mg/kg/injection, schedule: Q04DX003 (ip), vehicle: Klucel (hydroxypropylcellulose) (HPC)) was 90 % of control. The T/C (dose: 18.0 mg/kg/injection, schedule: Q01DX009 (ip), vehicle: Klucel (hydroxypropylcellulose) (HPC)) was 101 % of control, the T/C (dose: 28.0 mg/kg/injection, schedule: Q01DX009 (ip), vehicle: Klucel (hydroxypropylcellulose) (HPC)) was 100 % of control and the T/C (dose: 40.0 mg/kg/injection, schedule: Q01DX009 (ip), vehicle: Klucel (hydroxypropylcellulose) (HPC)) was 93 % of control.

`O=C(Nc1ccccc1)Nc1ncn[nH]1` was tested, and the T/C [1] was 97 % of control, the T/C (dose: 150.0 mg/kg/injection, schedule: Q01DX001 (ip), vehicle: carboxymethylcellulose (CMC)) was 92 % of control and the T/C (dose: 300.0 mg/kg/injection, schedule: Q01DX001 (ip), vehicle: carboxymethylcellulose (CMC)) was 90 % of control.

For `O=S(=O)(c1ccc(Nc2nnc(-c3ccccc3)s2)cc1)N1CCCCC1`, the T/C [12] was 96 % of control, the T/C [13] was 89 % of control and the T/C [14] was 86 % of control.

For `C=CC1CC2C=CC1C2` (stereo not given), the T/C [3] was 100 % of control, the T/C [5] was 103 % of control and the T/C [7] was 106 % of control.

With `CCCCCCNC(=S)Nc1ccccc1` the T/C (dose: 50.0 mg/kg/injection, schedule: Q01DX001 (ip), vehicle: saline) was 97 % of control, the T/C [8] was 103 % of control and the T/C [9] was 97 % of control.

With `S=C(Nc1ccccc1)NC1CC2C=CC1CC2` (stereo not given) the T/C [8] was 90 % of control, the T/C [9] was 92 % of control and the T/C [10] was 113 % of control.

For `CCOC(=O)c1ccc(NC(=O)Oc2ccccc2C(=O)OC)cc1`, the T/C [12] was 96 % of control, the T/C [13] was 97 % of control and the T/C [14] was 93 % of control.

For `CCOC(OCC)c1cc(=O)[nH]c(N)n1`, the T/C [12] was 101 % of control, the T/C [13] was 97 % of control and the T/C [14] was 96 % of control.

`Cc1cccc(CNCC(=O)O)c1` was tested, and the T/C [2] was 105 % of control, the T/C [3] was 92 % of control and the T/C [4] was 92 % of control. For the same molecule, the T/C [5] was 98 % of control, the T/C [6] was 105 % of control and the T/C [7] was 98 % of control.

Source: PubChem BioAssay AID248 (DTP/NCI, 2004)
